From PMC11025159 (Journal of Translational Medicine, 2024) come the findings set out here.

For one data set, the target named is T1, JAK3 (Homo sapiens, UniProt P52333).
T1 construct: purchased Promega Corporation V3701
T1 sequence (P52333 1-1124): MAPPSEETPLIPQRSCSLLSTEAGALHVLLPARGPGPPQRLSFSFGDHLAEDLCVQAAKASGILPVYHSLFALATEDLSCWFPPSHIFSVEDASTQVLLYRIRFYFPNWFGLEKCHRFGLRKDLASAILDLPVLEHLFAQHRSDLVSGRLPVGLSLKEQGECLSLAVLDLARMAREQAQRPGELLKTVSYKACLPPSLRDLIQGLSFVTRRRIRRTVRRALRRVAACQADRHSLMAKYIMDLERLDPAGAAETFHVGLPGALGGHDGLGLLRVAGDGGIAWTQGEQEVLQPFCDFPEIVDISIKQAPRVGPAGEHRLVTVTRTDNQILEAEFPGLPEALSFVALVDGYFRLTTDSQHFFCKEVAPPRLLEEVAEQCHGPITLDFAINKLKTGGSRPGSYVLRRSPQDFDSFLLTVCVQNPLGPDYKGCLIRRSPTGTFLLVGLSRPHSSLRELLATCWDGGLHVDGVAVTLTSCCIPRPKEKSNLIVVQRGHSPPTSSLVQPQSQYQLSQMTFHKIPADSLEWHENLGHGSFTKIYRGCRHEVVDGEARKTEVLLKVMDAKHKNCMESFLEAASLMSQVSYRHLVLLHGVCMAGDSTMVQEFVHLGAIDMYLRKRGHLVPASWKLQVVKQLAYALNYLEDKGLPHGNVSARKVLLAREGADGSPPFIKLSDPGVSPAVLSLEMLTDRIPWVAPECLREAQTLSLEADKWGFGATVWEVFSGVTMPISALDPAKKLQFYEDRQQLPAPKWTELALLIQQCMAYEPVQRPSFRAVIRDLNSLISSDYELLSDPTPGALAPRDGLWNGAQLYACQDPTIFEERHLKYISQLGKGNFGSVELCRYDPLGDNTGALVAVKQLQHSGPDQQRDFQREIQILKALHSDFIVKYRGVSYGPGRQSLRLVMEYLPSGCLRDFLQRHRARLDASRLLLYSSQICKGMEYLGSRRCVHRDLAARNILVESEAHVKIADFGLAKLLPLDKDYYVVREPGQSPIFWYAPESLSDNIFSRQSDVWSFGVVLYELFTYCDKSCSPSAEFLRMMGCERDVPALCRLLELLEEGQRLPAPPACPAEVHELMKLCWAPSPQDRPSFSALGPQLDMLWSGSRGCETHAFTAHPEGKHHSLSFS
In words: Cell-free kinase assay JAK3. The format is biochemical. As to the method:
(§1) The cell-free kinase assays of small molecules were determined by following the manufacturer-recommended protocols. Different concentrations in triplicate were used to determine the IC50 value of the hit molecules (active molecules). For data analysis, GraphPad Prism V9.5 Software and a sigmoidal dose–response (variable slope) equation were used. Each value represents an average of three replicates per concentration.

The target in a further data set is T2, EGFR (Homo sapiens, UniProt P00533).
T2 construct: purchased Promega Corporation V3831
The data set can be described thus: Cell-free kinase assay EGFR. The format is biochemical. The protocol:
as §1

For the next data set, the target named is T3, PI-3-K α (Homo sapiens, UniProt P42336).
T3 construct: purchased Promega Corporation V1690
The data set can be described thus: Cell-free kinase assay PI-3-K α. The format is biochemical. Conditions: Km ATP. As to the method:
as §1

The target in another data set is T4, PI-3-K β (Homo sapiens, UniProt P42338).
T4 construct: purchased Promega Corporation V1690
The data set can be described thus: Cell-free kinase assay PI-3-K β. Particulars: Km ATP. Format: biochemical. The protocol:
as §1

For the next data set, the target named is T5, PI-3-K δ (Homo sapiens, UniProt O00329).
T5 construct: purchased Promega Corporation V1690
In words: Cell-free kinase assay PI-3-K δ. The format is biochemical. Conditions: Km ATP. As to the method: as §1

The subject of another data set is HCT-116. The data set can be described thus: MTT cell viability assay HCT-116. Format: cell-based, human. Conditions: Homo sapiens, HCT-116, 48 h. As to the method: (§2) Cell viability was evaluated using an MTT colorimetric assay. Cells were seeded (10^5 cells/mL) in 96-well plates and allowed to grow overnight at 37 ℃ with 5% CO2 in a cell-culture incubator. On the following day, the cells were treated with small molecules at different concentrations (0.2–10 micro-molar) or vehicle (DMSO). Cells were then further incubated for 48 h.
For orientation: Formazan colour is commonly taken as a measure of viable cells.

For the next data set, the system named is Panc-2. In words: MTT cell viability assay Panc-2. Format: cell-based. Particulars: 48 h. The protocol:
as §2

Data set [1] can be described thus: Pharmacokinetic study, dermal application. The format is in vivo, C57BL/6 mice. Particulars: male, C57BL/6, mouse, topical or ocular; topical dose 30 mg/kg, plasma. As to the method:
The male C57BL/6 mice were used to study the pharmacokinetics of MJ04. MJ04 was dissolved in vehicle suspensions for dermal application (30 mg/kg). Blood samples were collected at different time points: 0 min, 30 min, 1 h, 2 h, 4 h, 8 h, 12 h, and 24 h after dermal application. Plasma samples were separated by centrifugation of whole blood and stored at less than − 70 °C until bioanalysis. The concentration of MJ04 in plasma was detected using LC–MS/MS (Agilent Technologies, 1260 Infinity system). The pharmacokinetic parameters were processed by DAS (version 3.2.8) software.

pIC50: −log10 of the molar value.

T2 sequence (P00533 25-1210): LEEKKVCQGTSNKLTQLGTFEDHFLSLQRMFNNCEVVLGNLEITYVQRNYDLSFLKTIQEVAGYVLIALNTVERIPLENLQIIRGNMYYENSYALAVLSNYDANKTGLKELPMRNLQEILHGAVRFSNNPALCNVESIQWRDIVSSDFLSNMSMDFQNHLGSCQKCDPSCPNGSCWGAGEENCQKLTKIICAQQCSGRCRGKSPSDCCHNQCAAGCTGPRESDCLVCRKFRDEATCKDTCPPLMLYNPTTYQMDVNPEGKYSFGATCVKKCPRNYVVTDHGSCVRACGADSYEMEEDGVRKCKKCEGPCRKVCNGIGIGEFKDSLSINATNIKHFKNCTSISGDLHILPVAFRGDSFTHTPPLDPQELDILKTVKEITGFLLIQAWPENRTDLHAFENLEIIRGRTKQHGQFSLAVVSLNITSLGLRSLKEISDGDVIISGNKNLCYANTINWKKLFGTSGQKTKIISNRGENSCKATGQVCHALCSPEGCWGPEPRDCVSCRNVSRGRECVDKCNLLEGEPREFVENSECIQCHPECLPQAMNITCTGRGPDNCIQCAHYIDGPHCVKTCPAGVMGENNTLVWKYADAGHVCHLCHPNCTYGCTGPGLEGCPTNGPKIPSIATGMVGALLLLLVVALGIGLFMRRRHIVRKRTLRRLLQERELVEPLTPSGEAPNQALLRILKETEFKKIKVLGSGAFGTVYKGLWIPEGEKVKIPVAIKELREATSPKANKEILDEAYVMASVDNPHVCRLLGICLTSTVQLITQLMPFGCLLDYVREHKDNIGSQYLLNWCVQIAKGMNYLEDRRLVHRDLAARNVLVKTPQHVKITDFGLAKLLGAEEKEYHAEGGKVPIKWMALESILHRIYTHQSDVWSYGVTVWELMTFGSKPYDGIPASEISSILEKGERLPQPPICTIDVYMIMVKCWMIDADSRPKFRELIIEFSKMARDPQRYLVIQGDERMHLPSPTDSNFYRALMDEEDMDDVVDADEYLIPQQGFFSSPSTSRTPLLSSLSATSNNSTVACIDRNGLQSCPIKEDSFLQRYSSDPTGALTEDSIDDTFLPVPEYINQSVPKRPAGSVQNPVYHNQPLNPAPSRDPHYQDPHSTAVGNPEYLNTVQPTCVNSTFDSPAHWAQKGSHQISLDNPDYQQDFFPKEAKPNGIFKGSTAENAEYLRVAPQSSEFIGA
T4 sequence (P42338 whole entry): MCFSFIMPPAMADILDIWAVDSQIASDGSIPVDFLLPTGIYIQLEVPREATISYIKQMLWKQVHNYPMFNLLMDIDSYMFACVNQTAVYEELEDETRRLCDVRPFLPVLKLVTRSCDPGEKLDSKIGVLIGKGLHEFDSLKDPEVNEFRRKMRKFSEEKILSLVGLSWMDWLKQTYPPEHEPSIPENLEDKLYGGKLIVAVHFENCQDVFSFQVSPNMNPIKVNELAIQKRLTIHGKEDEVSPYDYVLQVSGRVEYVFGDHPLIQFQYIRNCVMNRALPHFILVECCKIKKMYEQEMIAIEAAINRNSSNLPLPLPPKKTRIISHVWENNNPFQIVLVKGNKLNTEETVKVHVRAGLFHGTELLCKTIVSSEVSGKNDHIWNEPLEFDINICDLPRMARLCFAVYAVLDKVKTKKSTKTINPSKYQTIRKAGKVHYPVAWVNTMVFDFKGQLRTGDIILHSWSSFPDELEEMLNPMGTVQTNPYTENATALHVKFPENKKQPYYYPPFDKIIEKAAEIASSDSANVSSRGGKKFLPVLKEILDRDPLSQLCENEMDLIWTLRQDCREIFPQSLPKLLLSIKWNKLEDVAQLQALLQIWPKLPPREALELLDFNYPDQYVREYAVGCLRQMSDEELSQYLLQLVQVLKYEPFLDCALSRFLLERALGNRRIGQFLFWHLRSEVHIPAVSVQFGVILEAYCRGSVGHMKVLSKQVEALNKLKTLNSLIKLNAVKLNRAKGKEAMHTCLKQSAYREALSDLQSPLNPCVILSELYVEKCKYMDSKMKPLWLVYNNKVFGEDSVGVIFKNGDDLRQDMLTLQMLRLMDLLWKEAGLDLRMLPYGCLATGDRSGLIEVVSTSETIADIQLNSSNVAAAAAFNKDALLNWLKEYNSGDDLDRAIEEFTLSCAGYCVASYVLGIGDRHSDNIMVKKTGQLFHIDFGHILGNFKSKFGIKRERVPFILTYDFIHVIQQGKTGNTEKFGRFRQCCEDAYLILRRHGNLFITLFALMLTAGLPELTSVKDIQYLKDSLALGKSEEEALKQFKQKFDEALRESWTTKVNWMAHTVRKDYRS
T4 sequence (P27986 whole entry partner): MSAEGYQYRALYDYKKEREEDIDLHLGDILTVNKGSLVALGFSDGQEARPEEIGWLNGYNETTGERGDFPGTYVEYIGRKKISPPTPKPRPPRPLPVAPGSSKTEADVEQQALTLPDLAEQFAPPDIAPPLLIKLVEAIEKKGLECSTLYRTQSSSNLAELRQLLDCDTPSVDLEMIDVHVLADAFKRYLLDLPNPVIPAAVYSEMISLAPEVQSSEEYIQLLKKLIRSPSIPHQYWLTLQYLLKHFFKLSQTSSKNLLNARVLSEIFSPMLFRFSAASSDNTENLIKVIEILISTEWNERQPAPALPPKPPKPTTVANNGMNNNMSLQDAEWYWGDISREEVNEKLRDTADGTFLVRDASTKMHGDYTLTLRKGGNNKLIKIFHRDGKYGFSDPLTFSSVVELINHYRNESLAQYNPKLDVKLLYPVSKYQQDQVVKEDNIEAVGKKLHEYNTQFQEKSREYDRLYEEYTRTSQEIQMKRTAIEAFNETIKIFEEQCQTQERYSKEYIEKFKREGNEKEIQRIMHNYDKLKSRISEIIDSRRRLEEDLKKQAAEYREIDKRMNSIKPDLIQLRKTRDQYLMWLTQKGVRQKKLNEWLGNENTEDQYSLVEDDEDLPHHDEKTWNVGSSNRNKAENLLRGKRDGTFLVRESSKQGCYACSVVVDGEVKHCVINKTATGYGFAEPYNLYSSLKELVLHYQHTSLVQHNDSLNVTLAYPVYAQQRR
T5 sequence (O00329 whole entry): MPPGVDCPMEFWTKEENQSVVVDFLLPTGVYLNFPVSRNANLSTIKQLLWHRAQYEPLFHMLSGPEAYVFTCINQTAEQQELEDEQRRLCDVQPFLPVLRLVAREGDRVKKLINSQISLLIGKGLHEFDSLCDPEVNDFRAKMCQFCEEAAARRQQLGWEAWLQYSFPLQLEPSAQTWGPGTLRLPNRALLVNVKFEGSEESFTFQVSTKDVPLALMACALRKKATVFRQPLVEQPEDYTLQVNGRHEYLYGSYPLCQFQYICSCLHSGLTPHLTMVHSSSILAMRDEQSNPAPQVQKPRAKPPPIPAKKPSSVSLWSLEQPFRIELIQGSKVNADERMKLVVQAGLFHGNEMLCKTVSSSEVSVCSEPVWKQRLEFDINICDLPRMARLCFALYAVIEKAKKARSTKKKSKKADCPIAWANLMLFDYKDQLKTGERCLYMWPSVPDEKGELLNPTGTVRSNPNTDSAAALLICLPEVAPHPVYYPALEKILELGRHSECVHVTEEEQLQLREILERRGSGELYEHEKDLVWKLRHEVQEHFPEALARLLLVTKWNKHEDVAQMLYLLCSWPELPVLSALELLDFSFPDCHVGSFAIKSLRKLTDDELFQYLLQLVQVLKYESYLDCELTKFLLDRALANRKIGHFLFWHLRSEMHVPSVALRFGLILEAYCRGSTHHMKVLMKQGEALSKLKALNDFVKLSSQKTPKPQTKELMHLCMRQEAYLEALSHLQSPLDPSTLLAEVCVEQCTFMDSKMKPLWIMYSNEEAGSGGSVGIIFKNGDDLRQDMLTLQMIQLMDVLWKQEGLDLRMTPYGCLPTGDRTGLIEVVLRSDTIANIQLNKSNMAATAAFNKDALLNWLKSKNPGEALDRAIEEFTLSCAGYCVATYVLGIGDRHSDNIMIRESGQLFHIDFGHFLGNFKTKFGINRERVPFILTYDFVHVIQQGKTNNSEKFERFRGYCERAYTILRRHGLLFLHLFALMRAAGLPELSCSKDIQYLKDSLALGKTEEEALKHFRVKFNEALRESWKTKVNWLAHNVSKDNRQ
T5 sequence (P27986 whole entry partner): as the sequence (P27986 whole entry partner) above

As for `Fc1ccc(-c2cnc3[nH]cc(-c4ccnc(NC5CC5)n4)c3c2)cc1` [MJ04], the pIC50 (commonly the IC50 on a negative log10 scale, so that one unit is a factor of ten) at JAK3 (1mM ATP) was 7.55; at JAK3 (Km ATP (2.5 µM)), 8.69; at EGFR (Km ATP), 5.49; against PI-3-K α, below 5.00; on PI-3-K β it was below 5.00; against PI-3-K δ it was below 5.00. Also, the pIC50 is 5.59 in the data set on HCT-116 and 5.56 in the data set on Panc-2. Moreover, the figures for the “Fold of selectivity vs. JAK3” value on JAK3 (JAK 3) and on EGFR (EGFR) were 1 and 1609, respectively. In addition, at JAK3 (structure-activity statement), the “inhibitory activity against JAK3 in kinase assays and in MTT assays” value is recorded as “significant inhibitory activity”. In data set [1], the highest concentration (Cmax) (commonly the maximum level reached in the sampled fluid or tissue) worked out at 480 nM. Besides, the time to peak (Tmax) (commonly the time at which the peak concentration occurs) in data set [1] is 1 h.
